Test results taken from patent publication US9107411B2, “Indolecarboxamides and benzimidazolecarboxamides as insecticides and acaricides” (BAYER INTELLECTUAL PROPERTY GMBH, priority 2011, dated 2015).
Read-outs that look alike come from different tables or passages of the source.

Columns and labels:
Boophilus microplus = Boophilus microplus test (BOOPMI injection); type: in vivo; details: application rate 20 μg/animal; injected into the abdomen; after 7 days
Experimental: Boophilus microplus Test (BOOPMI Injection) Solvent: dimethyl sulphoxide To prepare an appropriate active ingredient formulation, 10 mg of active ingredient are mixed with 0.5 ml of solvent and the concentrate is diluted with solvent to the desired concentration. The active ingredient solution is injected into the abdomen (Boophilus microplus), and the animals are transferred into dishes and stored in a climate-controlled room. After 7 days, the efficacy in % is determined. The activity is assessed by laying of fertile eggs. 100% means that none of the ticks has laid any fertile eggs.

Ctenocephalides felis = Ctenocephalides felis oral (CTECFE); type: in vivo; details: application rate 100 ppm in citrated cattle blood; after 2 days
Experimental: Ctenocephalides felis Oral ([…]) Solvent: 1 part by weight of dimethyl sulphoxide For the purpose of preparing an appropriate active ingredient formulation, 10 mg of active ingredient are mixed with 0.5 ml of dimethyl sulphoxide. A portion of the concentrate is diluted with citrated cattle blood, and the desired concentration is prepared. About 20 unfed adult fleas (Ctenocephalides felis) are placed into a chamber which is closed at the top and bottom with gauze. A metal cylinder whose bottom end is closed with Parafilm is placed onto the chamber. The cylinder contains the blood/active ingredient formulation, which can be imbibed by the fleas through the Parafilm membrane. After 2 days, the kill in % is determined 100% means that all of the fleas have been killed; 0% means that none of the fleas have been killed.

Lucilia cuprina larvae = assay: Lucilia cuprina test (LUCICU); type: in vivo; details: application rate 100 ppm; treated horse meat; after 2 days
Experimental: (§1) Lucilia cuprina Test (LUCICU) Solvent: dimethyl sulphoxide To prepare an appropriate active ingredient formulation, 10 mg of active ingredient are mixed with 0.5 ml of dimethyl sulphoxide and the concentrate is diluted with water to the desired concentration. Vessels containing horse meat treated with the active ingredient formulation of the desired concentration are populated with about 20 Lucilia cuprina larvae. After 2 days, the kill in % is determined. 100% means that all of the larvae have been killed; 0% means that none of the larvae have been killed.

Phaedon cochleariae = assay: Phaedon test (PHAECO spray treatment); type: in vivo; details: Chinese cabbage leaf discs, after 7 days
How it was run: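 Chinese cabbage leaf discs were sprayed with compound in acetone/DMF with emulsifier, diluted in water to the test concentration. After drying, discs were infested with mustard beetle larvae. Efficacy in % was scored after 7 days, where 100% means all larvae were killed and 0% means none.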

Spodoptera frugiperda = Spodoptera frugiperda test (SPODFR spray treatment); type: in vivo; details: maize leaf discs, after 7 days
How it was run: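 Maize leaf discs sprayed with active ingredient formulated in acetone/dimethylformamide with emulsifier, diluted in emulsifier-containing water to the desired concentration. After drying, discs were populated with armyworm caterpillars. Efficacy (%) scored after 7 days: 100% all caterpillars killed, 0% none killed.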

Tetranychus urticae = assay: Tetranychus test, OP-resistant (TETRUR spray treatment); type: in vivo; details: bean leaf discs, after 6 days
How it was run: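 Bean leaf discs infested with all stages of OP-resistant T. urticae sprayed with compound formulated in acetone/DMF plus alkylaryl polyglycol ether emulsifier, diluted in water. Efficacy (% mites killed) scored after 6 days.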

logP (HPLC-MS) = type: physicochemical
adult Musca domestica = assay: Musca domestica test (MUSCDO); type: in vivo; details: application rate 100 ppm; treated sponge; after 2 days
Experimental: as §1, with “Musca domestica” for “Lucilia cuprina”, “(MUSCDO)” for “(LUCICU)”, “a sponge” for “horse meat”, “adult Musca domestica.” for “about 20 Lucilia cuprina larvae.”, “determined” for “determined.”, “flies” for “larvae”

[1] = HPLC, reversed-phase column (C18), acidic range pH 2.7, acetonitrile (0.1% formic acid)/water gradient, 43° C., calibration with unbranched alkan-2-ones

Row | log p (logP (HPLC-MS); [1]) | chromatographic logP (logP (HPLC-MS); HPLC, reversed-phase column (C18), acidic range pH 2.7, acetonitrile (0.1% formic acid)/water gradient, 43° C., calibration with unbranched alkan-2-ones, read-out: log p) | chromatographic logP (logP (HPLC-MS); HPLC-MS) | SMILES | efficacy (laying of fertile eggs) (Boophilus microplus) [%] | efficacy (kill in %) (Ctenocephalides felis) [%] | efficacy (kill in %) (Lucilia cuprina larvae) [%] | efficacy in % (Phaedon cochleariae; application rate 100 g/ha) [%] | efficacy in % (Spodoptera frugiperda; application rate 100 g/ha) [%] | efficacy in % (Tetranychus urticae; application rate 500 g/ha) [%] | efficacy (kill in %) (adult Musca domestica) [%] | efficacy in % (Phaedon cochleariae; application rate 500 g/ha) [%] | efficacy in % (Spodoptera frugiperda; application rate 500 g/ha) [%] | efficacy in % (Tetranychus urticae; application rate 100 g/ha) [%] | pest or weed control at 100 g/ha (Phaedon cochleariae; Phaedon cochleariae, foliar, 168 h, application rate 100 g/ha, read-out: efficacy in %) [%]
1 | 3.65 | – | – | CCn1c(C(=O)NC(c2cccc(Cl)c2)C(F)(F)F)cc2cc(C(=O)NC3CC3)c(Cl)cc21 (stereo not drawn) [Compound 2] | 100 | 95 | 100 | 100 | 100 | 100 | – | – | – | – | –
2 | 3.93 | – | – | CCn1c(C(=O)NC(c2ccc(F)c(C(F)(F)F)c2)C(F)(F)F)cc2cc(C(=O)NC3CC3)c(Cl)cc21 (stereo not drawn) [Compound 3] | 100 | 100 | 100 | 100 | 100 | 100 | 100 | – | – | – | –
3 | 3.88 | – | – | CCn1c(C(=O)NC(c2cccc(C(F)(F)F)c2)C(F)(F)F)cc2cc(C(=O)NC(C)CF)c(Cl)cc21 (stereo not drawn) [Compound 8] | 100 | 95 | 100 | 100 | 100 | – | – | – | – | – | –
4 | 4.06 | – | – | CCn1c(C(=O)NC(c2cccc(C(F)(F)F)c2)C(F)(F)F)cc2cc(C(=O)NCC(C)(F)F)c(Cl)cc21 (stereo not drawn) [Compound 10] | 100 | 95 | 100 | 100 | 83 | – | 100 | – | – | – | –
5 | 3.86 | – | – | CCn1c(C(=O)NC(c2cccc(C(F)(F)F)c2)C(F)(F)F)cc2cc(C(=O)NC(CF)CF)c(Cl)cc21 (stereo not drawn) [Compound 11] | 100 | 80 | 100 | 100 | – | – | – | – | – | – | –
6 | 4.27 | – | – | CCn1c(C(=O)NC(c2cc(Cl)cc(Cl)c2)C(F)(F)F)cc2cc(C(=O)NC3CC3)c(Cl)cc21 (stereo not drawn) [Compound 13] | 100 | 100 | 100 | – | – | 80 | 100 | 100 | 100 | – | –
7 | 3.89 | – | – | CCn1c(C(=O)NC(c2cccc(C(F)(F)F)c2)C(F)(F)F)cc2cc(C(=O)NC(C)(C)C#N)c(Cl)cc21 (stereo not drawn) [Compound 15] | 100 | 100 | 100 | 100 | 100 | – | 100 | – | – | – | –
8 | 3.88 | – | – | CCn1c(C(=O)NC(c2ccc(F)c(C(F)(F)F)c2)C(F)(F)F)cc2cc(C(=O)NC3(C#N)CC3)c(Cl)cc21 (stereo not drawn) [Compound 16] | 100 | 100 | 100 | 100 | 100 | – | 100 | – | – | 100 | –
9 | – | 4.03 | 5.16 | CCn1c(C(=O)NC(c2ccc(F)c(C(F)(F)F)c2)C(F)(F)F)cc2cc(C(=O)NCC(F)F)c(Cl)cc21 (stereo not drawn) [Compound 19, 6-chloro-N^5-(2,2-difluoroethyl)-1-ethyl-N^2-{2,2,2-trifluoro-1-[4-fluoro-3-(trifluoromethyl)phenyl]ethyl}-1H-indole-2,5-dicarboxamide] | 100 | 100 | 100 | – | – | – | 100 | – | – | – | 100
10 | 4.16 | – | – | CCn1c(C(=O)NC(c2cccc(C(F)(F)F)c2)C(F)(F)F)cc2cc(C(=O)NC3(C)CC3)c(Cl)cc21 (stereo not drawn) [Compound 22] | 100 | 100 | 100 | 100 | 83 | – | 100 | – | – | 80 | –
11 | 3.86 | – | – | CCn1c(C(=O)NC(c2cccc(C(F)(F)F)c2)C(F)(F)F)cc2cc(C(=O)NC3(C(=O)OC)CC3)c(Cl)cc21 (stereo not drawn) [Compound 28] | 100 | 95 | 100 | 100 | 83 | 100 | – | – | – | – | –
12 | 3.86 | – | – | C#CC1(NC(=O)c2cc3cc(C(=O)NC(c4cccc(C(F)(F)F)c4)C(F)(F)F)n(CC)c3cc2Cl)CC1 (stereo not drawn) [Compound 32] | 100 | 100 | 100 | 100 | – | – | – | – | – | 100 | –
13 | 4.09 | – | – | CCn1c(C(=O)NC(c2cccc(C(F)(F)F)c2)C(F)(F)F)cc2cc(C(=O)NC3(C#N)CCC3)c(Cl)cc21 (stereo not drawn) [Compound 36] | 100 | 100 | 95 | 100 | 100 | – | – | – | – | 100 | –
14 | 3.67 | – | – | CCn1c(C(=O)NC(c2cccc(Cl)c2)C(F)(F)F)cc2cc(C(=O)NC3(C#N)CC3)c(Cl)cc21 (stereo not drawn) [Compound 39] | 100 | 100 | 100 | 100 | 100 | – | – | – | – | 100 | –
15 | 3.75 | – | – | CCn1c(C(=O)NC(c2cccc(Br)c2)C(F)(F)F)cc2cc(C(=O)NC3(C#N)CC3)c(Cl)cc21 (stereo not drawn) [Compound 41] | 100 | 100 | 100 | – | 100 | – | – | – | – | 100 | –
16 | 3.76 | – | – | CCn1c(C(=O)NC(c2ccc(F)c(Br)c2)C(F)(F)F)cc2cc(C(=O)NC3(C#N)CC3)c(Cl)cc21 (stereo not drawn) [Compound 42] | 100 | 100 | 100 | 100 | 100 | – | 100 | – | – | 100 | –
17 | 3.39 | – | – | Cn1c(C(=O)NC(c2cccc(Br)c2)C(F)(F)F)cc2cc(C(=O)NC3(C#N)CC3)c(Cl)cc21 (stereo not drawn) [Compound 48] | 100 | 100 | 100 | 100 | 100 | – | – | – | – | 100 | –
18 | 3.70 | – | – | Cn1c(C(=O)NC(c2ccc(F)c(C(F)(F)F)c2)C(F)(F)F)cc2cc(C(=O)NC3CC3)c(Cl)cc21 (stereo not drawn) [Compound 49] | 100 | 98 | 100 | 100 | 100 | – | 100 | – | – | 100 | –

Row | SMILES | log p (logP (HPLC-MS); [1]) | chromatographic logP (logP (HPLC-MS); HPLC, reversed-phase column (C18), acidic range pH 2.7, acetonitrile (0.1% formic acid)/water gradient, 43° C., calibration with unbranched alkan-2-ones, read-out: log p) | chromatographic logP (logP (HPLC-MS); HPLC-MS) | efficacy (laying of fertile eggs) (Boophilus microplus) [%] | efficacy (kill in %) (Ctenocephalides felis) [%] | efficacy (kill in %) (Lucilia cuprina larvae) [%] | efficacy in % (Phaedon cochleariae; application rate 100 g/ha) [%] | efficacy in % (Spodoptera frugiperda; application rate 100 g/ha) [%] | efficacy in % (Tetranychus urticae; application rate 500 g/ha) [%] | efficacy (kill in %) (adult Musca domestica) [%] | efficacy in % (Phaedon cochleariae; application rate 500 g/ha) [%] | efficacy in % (Spodoptera frugiperda; application rate 500 g/ha) [%] | efficacy in % (Tetranychus urticae; application rate 100 g/ha) [%] | pest or weed control at 100 g/ha (Phaedon cochleariae; Phaedon cochleariae, foliar, 168 h, application rate 100 g/ha, read-out: efficacy in %) [%]
19 | CCn1c(C(=O)NC(c2ccc(F)c(Cl)c2)C(F)(F)F)cc2cc(C(=O)NC3(C#N)CC3)c(Cl)cc21 (stereo not drawn) [Compound 20] | 3.79 | – | – | 100 | 100 | 100 | 100 | 100 | – | 100 | – | – | 80 | –
